In patent publication US4820690A (G. D. Searle & Co., priority 1984, dated 1989):

Tests used:
gastric acid secretion [1] = experiment: Histamine stimulated acid secretion in beagle dogs with Heidenhain pouches (Example 3); format: in vivo, dog; conditions: Heidenhain pouch dogs; for effect on acid secretion, intravenous administration: intravenously administered
Procedure: Male beagle dogs (14-22 kg.) were prepared with isolated Heidenhain (vagal denervated) pouches derived from the fundic area of the stomach by the method of Rudick et al, J. Surg. Res. 7: 383, 1967. Animals were allowed 4-6 weeks to recover from surgery and given a 2-3 month training period to standardise laboratory behaviour and secretory responses. The dogs were fasted for 23 hours prior to use, the pouch then flushed with warm water and histamine infused subcutaneously at a rate of 10 μg./min. Pouch secretions were collected every 15 minutes, their volume measured and aliquots titrated to pH 7.0 with 100 mM NaOH.

gastrointestinal mucosa = conditions: administered concurrently with or prior to the injurious stimuli; cited from earlier work
[2] = test system: cysteamine induced duodenal ulcers; experiment: Healing of cysteamine-induced perforating duodenal ulcers, therapy in drinking water for 50 days (Example 1); format: in vivo; conditions: rats, 50 days therapy from day 7 after cysteamine, urogastrone 6 μg./rat/day, cimetidine 100 mg./rat/day; for Healed (number of healed ulcers) / Unhealed (number of unhealed ulcers): n 15
Procedure: Rats with perforating duodenal ulcers confirmed by laparotomy were selected from a large number and given two doses of cysteamine as described in the following protocol. These animals were randomly assigned to treatment groups of 15 rats each. The protocol utilises 2 doses of cysteamine (300 mg./kg. and 150 mg./kg., 6 hours apart). This procedure produces deep perforating duodenal ulcers in a majority of the rats injected. The "chronic" ulcers heal extremely slowly. Previous studies have shown that after 50 days only 20% have healed as judged by reepithelialization of the surface. Even after 200 days, 36% remain unhealed. In order to provide for a reliable experimental protocol, rats given 2 doses of cysteamine are subjected to an intra-abdominal inspection by laparotomy 5 days after induction. Only those rats in which perforation of the ulcer to the duodenal external serosal surface has occurred are included in the experimental groups. Rats with non-perforating ulcers are discarded. Therapy by drug or placebo then begins on day 7 post-induction.On termination after a standardised period of (21 to 50 days) therapy the duodenum is removed from all rats, fixed and stained with PAS and the number of healed and unhealed ulcers determined by macroscopic examination of the mucosal surface with a stereomicroscope. Healing is defined as restoration of complete mucosal integrity by reepithelialisation of the surface. This is confirmed by subsequent histology. In this example, therapy commenced on day 7 following cysteamine and continued for 50 days.

gastric acid secretion [3] = conditions: administered intravenously to animals; cited from earlier work
[4] = test system: cysteamine induced duodenal ulcers; experiment: Healing of cysteamine-induced duodenal ulcers, therapy by oral gavage for 21 days, assessed blind by 2 observers (Example 2); format: in vivo; conditions: rats, 10 μg./rat/dose by oral gavage three times a day
Procedure: The protocol utilises 2 doses of cysteamine (300 mg./kg. and 150 mg./kg., 6 hours apart).
In order to provide for a reliable experimental protocol, rats given 2 doses of cysteamine are subjected to an intra-abdominal inspection by laparotomy 5 days after induction. Only those rats in which perforation of the ulcer to the duodenal external serosal surface has occurred are included in the experimental groups. Rats with non-perforating ulcers are discarded. Therapy by drug or placebo then begins on day 7 post-induction.On termination after a standardised period of (21 to 50 days) therapy the duodenum is removed from all rats, fixed and stained with PAS and the number of healed and unhealed ulcers determined by macroscopic examination of the mucosal surface with a stereomicroscope. Healing is defined as restoration of complete mucosal integrity by reepithelialisation of the surface.
In this Example the same protocol was followed as in Example 1 but therapy was continued for only 21 days after commencing on day 7 following ulcer induction.

[5] = test system: gastrointestinal epithelial proliferation; experiment: Crypt cell production rate of gastrointestinal epithelium in rats on total parenteral nutrition (Example 4); format: in vivo, rat; conditions: intragastric infusion of similar or much larger doses than i.v.
Procedure: These animals have permanent indwelling i.v. catheters connected to infusion pumps via 360° swivel joints which allow normal mobility of the rats within their cages. A complete parenteral food mixture is infused through the catheters at a rate of 60 ml./rat/24 h. The animals are allowed water in the normal way but no food by mouth.
Epithelial cell turnover in these experiments was determined as the crypt cell production rate (CCPR) at each site examined. CCPR was defined as the number of new cells produced per mucosal crypt per hour (for method of determination see Al Nafussi and Wright, Virch. Arch. Cell Pathol. 40: 63, 1982).
Infusion was continued for 10 days.

[6] = test system: acid secretion in the stomach; conditions: administered by a systemic route; cited from earlier work

Row | Molecule | effect on acid secretion, intravenous administration (gastric acid secretion [1]) | protection of the gastrointestinal mucosa against damaging stimuli and ulcer formation (gastrointestinal mucosa) | Percentage Rate (healed) [2] [%] | Healed (number of healed ulcers) [2] | Unhealed (number of unhealed ulcers) [2] | activity in inhibiting acid secretion, beta- versus gamma-urogastrone (gastric acid secretion [3]) | further results
1 | mEGF: epidermal growth factor from mouse salivary glands, polypeptide of 53 amino acids resembling beta-urogastrone (NSYPGCPSSYDGYCLNGGVCMHIESLDSYTCNCVIGYSGDRCQTRDLRWWELR; Epidermal growth factor; UniProt P01132 977-1029, looked up) [reference compound] | inhibited acid secretion | protect the gastrointestinal mucosa |  |  |  |  | 
2 | CN/C(=N/CCSCc1nc[nH]c1C)NC#N [Cimetidine, reference compound] |  |  | 40 | 6 | 9 |  | 
3 | gamma-urogastrone: 52 amino acid form that differs from beta-urogastrone only in lacking the carboxy-terminal arginine residue (NSDSECPLSHDGYCLHDGVCMYIEALDKYACNCVVGYIGERCQYRDLKWWEL; Epidermal growth factor; UniProt P01133 971-1022, looked up, fragment) |  |  |  |  |  | equal activity | 
4 | Urogastrone: active form of human urogastrone, polypeptide hormone of 53 amino acids; recombinant derived, produced by microbial methods | inhibited acid secretion | protect the gastrointestinal mucosa | 43 | 6 | 8 | equal activity | Percentage healed, observer (1) [4]: 36%; Percentage healed, observer (2) [4]: 23%; Healed, observer (1) ([4]; n 22): 8; Unhealed, observer (1) ([4]; n 22): 14; Unhealed, observer (2) ([4]; n 22): 17; time to peak inhibition of the acid secretion response to histamine (gastric acid secretion [1]; after intravenous bolus injection): ≤ 30 min; dose required to produce a 50% inhibition of acid secretion (gastric acid secretion [1]; intravenous bolus dose, histamine 10 μg./min s.c., from log-linear dose response regression plots): 0.27 µg/kg; effect on acid secretion, oral administration (gastric acid secretion [1]; single oral solution dose, even at 4 mg. (approximately 200 μg./kg.)): no effect on acid secretion; effect on gastrointestinal epithelial proliferation, intragastric infusion [5]: no effect; inhibition of acid secretion in the stomach of humans [6]: inhibit acid secretion
